Experimental data from paper PMC548150, “Reversal of a full-length mutant huntingtin neuronal cell phenotype by chemical inhibitors of polyglutamine-mediated aggregation” (BMC Neuroscience, 2005).
pIC50: −log10 of the molar value. Where “and” joins values, the source holds several entries; their conditions need not be identical. Equal entries are not always repeated. Entries after “also recorded” stand apart in the source; their conditions may differ. Where two headings read alike, the source gives them in different places.

Assays:
[1] = test system: ST111/111 striatal cells; assay type: cell-based; conditions: 30 min at 33°C
Description: (§1) After the treatment the drugs were removed and the cells washed twice in PBS. The cells were then fixed by incubation in 4% formaldehyde for 15 min, permeabilized by 0.1% Triton X-100 for 5 min and incubated for 30 min with blocking solution (1% bovine albumin in PBS). Coverslips were then incubated in primary antibody (AP229 1:500 dilution) for 2 h at room temperature and washed three times in PBS before a further 1 h in blocking solution containing the secondary antibody (goat anti-rabbit Cy3, Jackson ImmunoResearch, West Grove, PA. USA). After three washes in PBS coverslips were mounted onto glass slides with Vectashield (Burlingame, CA. USA) and the images were analyzed with a laser confocal microscope (Bio-Rad, Hercules, CA. USA) using 20 × objective. Cell death was quantified by scoring the percentage of cells with apoptotic nuclear morphology, i.e. condensed or fragmented nuclei, under the confocal microscope. In each case five to ten randomly selected fields were counted, comprising at least 200 cells, and each experiment was repeated 3 times.

[2] = test system: ST111/111 striatal cells (Hdh^Q111/Q111, full-length mutant huntingtin); experiment: striatal cell line assay: huntingtin localization phenotype (AP229 immunostaining, confocal); assay type: cell-based, mouse; conditions: for Percentage of ST111/111 cells showing cytoplasmic/nuclear huntingtin localization comparable to wild-type ST7/7 cells: 30 min at 33°C, mean ± SD of 5–10 fields
Source text: To test the hypothesis that compounds, which inhibit the aggregation-promoting property of amino-terminal mutant huntingtin will also rescue effects of full-length mutant huntingtin, we tested the top six inhibitors in a striatal cell-based assay. Mutant Hdh^Q111/Q111 and wild-type Hdh^Q7/Q7 striatal cell lines, […], which have been prepared by transformation with a tsSV40 vector, can be propagated in culture and used for cytological and biochemical comparisons. These cells express full-length mutant or wild-type huntingtin, respectively, with no evidence of truncated amino-terminal fragments, no formation of polyglutamine aggregates and no cell death-producing toxicity. However, like the striatal neurons of Hdh^Q111/Q111 knock-in mice, the ST111/111 cells show nuclear staining of huntingtin when tested with an amino-terminal huntingtin antibody that is sensitive to the conformation of the full-length protein (Figure 5A). By contrast, ST7/7 cells expressing wild type huntingtin show both nuclear and cytoplasmic immunostaining with the same huntingtin antibody (Figure 5A).
Conditionally immortalized wild-type Hdh^Q7/Q7 striatal neuronal progenitor cells (ST7/7) expressing endogenous normal huntingtin, and homozygous Hdh^Q111/Q111 striatal neuronal progenitor cells (ST111/111), expressing endogenous mutant huntingtin with 111-glutamines, have been described previously. The striatal cell lines were grown at 33°C in Dulbecco's modified Eagle's medium (DMEM) supplemented with 10 % fetal bovine serum (FBS), 1% nonessential aminoacids, 2 mM L-glutamine and 400 μg/ml G418 (Geneticin (GIBCO-BRL, Life Technologies, Gaithersburg, MD).
as §1, with “In the immunofluorescence and confocal analysis experiment, wild-type ST7/7 and homozygous mutant ST111/111 cells, grown to confluence on glass coverslips, were treated with 6 different drugs at four different concentrations (0.5, 5, 10 or 50 μM) for 30 min at 33°C. After the” for “After the”

[3] = test system: HEK 293T cells expressing androgen receptor with 112 glutamines; conditions: cited from earlier work
[4] = test system: PC12 cells expressing huntingtin exon 1 encoding 103 glutamines; set-up: method as in PMID 15262266; conditions: cited from earlier work
[5] = target: T1, Q58-htn 1–171 amino terminal fragment (GST-Q58-Htn cleaved by thrombin) (Homo sapiens, UniProt P42858, INS38QQQQQQQQQQQQQQQQQQQQQQQQQQQQQQQQQQQQQ); experiment: in vitro aggregation of amino-terminal mutant huntingtin fragment (filter retardation dot blot); assay type: biochemical
T1 construct: the amino terminal fragment 1–171 of mutant huntingtin; GST (N, cleaved yes); made in house; host or cells: E. coli BL21 (pGEX-2TK vector)
T1 sequence (P42858 with tags, fused parts or gaps with the stated changes limits assumed): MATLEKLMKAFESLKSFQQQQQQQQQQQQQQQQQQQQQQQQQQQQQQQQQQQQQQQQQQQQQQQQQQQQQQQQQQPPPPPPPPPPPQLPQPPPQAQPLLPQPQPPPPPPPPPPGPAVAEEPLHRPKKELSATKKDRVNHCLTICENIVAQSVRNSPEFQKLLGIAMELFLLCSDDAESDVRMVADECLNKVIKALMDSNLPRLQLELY
Description: In our primary screen (Figure 1A), GST-Q58-Htn (20 μg/ml) was mixed with thrombin (0.5 unit/μg GST-Q58-Htn) and immediately dispensed into a 96-well PCR plate containing compounds diluted to a final concentration of 100 μM. Incubation was continued for 24 hours at room temperature to allow aggregate formation. The aggregation was stopped by 2% SDS/10 mM 2-mercaptoethanol followed by boiling for 5 minutes. The mixture was filtered through a cellulose acetate membrane by using a 96-well ELIFA dot blot apparatus. The aggregates retained on the membrane were detected and quantified by immunoblotting and subsequent image analysis. Congo Red, a known huntingtin aggregation inhibitor, was used as the positive control.
A recombinant pGEX-2TK expression vector with cDNA fragment encoding amino terminal 171 amino acids of human huntingtin with a polyglutamine tract of 58 was used to prepare the GST-Q58-htn fusion protein. The GST-Q58-htn was overexpressed in BL21 cells and purified by affinity chromatography over glutathione-sepharose 4B beads (Amersham Pharmacia Biotech). The purified proteins were stored at concentration of 2.0 mg/ml at -80°C.
For primary screening of the chemical library, 1 μl of 4.0 mM small compound stock, diluted from the original plates, was placed in wells of 96-well plates. The fusion protein, GST-Q58-Htn was mixed with thrombin (0.5 unit/1 μg protein) at a concentration of 20 μg/ml in a buffer of 50 mM Tris-HCl, pH 8.0, 100 mM NaCl, 2.5 mM CaCl2, 1.0 mM EDTA. The mixture was immediately distributed into the 96-well plates containing diluted compounds at 40 μl/well and mixed well. The final concentration of the small compounds was 100 μM. After 24 hours incubation at room temperature, the reaction was stopped by adding 10 μl of 10% SDS/50 mM 2-mercaptoethanol to each well followed by boiling in a PCR machine for 5 minutes. The mixture from each well was filtered through a cellulose acetate membrane ((0.2 μm, GE Osmonics labstore, Minnetonka MN) by using a 96-well ELIFA (Pierce Biotech). The aggregates retained on the membrane were detected by a specific anti-huntingtin antibody, HP1 (diluted 1:1000), followed by incubation with peroxidase conjugated anti-rabbit antibody (diluted 1:10,000, Sigma). Signals from SDS insoluble aggregates were scanned and quantified by using ImageMaster Totalab image analysis software (Amersham Pharmacia Biotech). In the secondary screening, all steps were the same except the final concentration of compound in each well was reduced to 10 μM and the GST-Q58-Htn/thrombin mixture was preincubated for 45-minutes at room temperature and clarified by centrifugation at 28,000 × g for 30 minutes before being added to the test wells. For IC50 determinations, the in vitro aggregation assay and signal quantification were performed as in the second screening but varying the final concentration of input drug. The data for each inhibitor were obtained from at least two independent experiments in which every sample was analyzed in triplicate with Prism 3.0 software (Graphpad Software, Inc., San Diego, CA).

CC1=C(O)C(=O)C=C2C1=CC=C1[C@@]2(C)CC[C@@]2(C)[C@@H]3C[C@](C)(C(=O)O)CC[C@]3(C)CC[C@]12C [Celastrol]
percentage of dead cells ([1]; 5 μM): 1%
percentage of dead cells ([1]; 10 μM): 4%
Percentage of ST111/111 cells showing cytoplasmic/nuclear huntingtin localization comparable to wild-type ST7/7 cells ([2]; 0.5 μM): 8.7 ± 8.7%
Percentage of ST111/111 cells showing cytoplasmic/nuclear huntingtin localization comparable to wild-type ST7/7 cells ([2]; 5 μM): 69.2 ± 3.8%
Percentage of ST111/111 cells showing cytoplasmic/nuclear huntingtin localization comparable to wild-type ST7/7 cells ([2]; 10 μM): 78.1 ± 3.5%
reversal of the mutant huntingtin localization phenotype (in words) ([2]; 0.5–50 μM tested): reversed the mutant phenotype in a dose-dependent manner; also recorded: effective
effect on caspase 3 activation [3]: blocked caspase 3 activation
toxicity in the HEK 293T assay [3]: showed toxicity
protection against polyglutamine toxicity [4]: partially protective
pIC50 [5]: > 5.22 and > 4.82 and 5.45
residual aggregate formed ([5]; at the maximum concentration of the dose response (0.01 μM to 500 μM)): approximately 20%
